In patent US8962637B2, “Bicyclic compounds and their uses as dual c-SRC/JAK inhibitors” (Debiopharm S.A., priority 2010, dated 2015):

Experiments:
A549 cells = test: Cell viability assay (XTT assay), A549; assay type: cell-based; conditions: Homo sapiens, 72 hrs
Method: Next day compounds were added to cells and incubated for 72 hrs. Compound treatment was done in triplicates. After 72 hrs cell culture media was aspirated from the wells and XTT working solution was added and plates were incubated for 2-5 hrs. […] EC50 values were calculated using Graphpad Prism. Tumor cell lines used in the examples of the present invention were procured from ATCC. Description of the cell lines is included in the following table: […]

pStat3 [1] = test: In-Cell-Western blot assay for pStat3 (ICW) in A431 cells; assay type: cell-based; conditions: Homo sapiens, A-431, 2 hrs, read-out: pSTAT3 inhibition
In short: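 Serum-starved (overnight) A431 cells treated with compound for 2 hrs, then fixed, permeabilized and probed with phospho-Stat3 antibody plus europium-labelled secondary. Europium signal normalized to Hoechst for cell number; IC50 calculated from normalized values.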

Mda-Mb-231 cells = test: Cell viability assay (XTT assay), Mda-Mb-231; assay type: cell-based; conditions: Homo sapiens, 72 hrs
In short: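 MDA-MB-231 cells seeded and dosed next day in triplicate, incubated 72 h. Medium replaced with XTT working solution for 2-5 h, absorbance read at 465 nm, and EC50 values derived from the readings.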

JAK1 = JAK1 (Homo sapiens (Human), UniProt P23458); test: JAK1 kinase inhibition; assay type: biochemical; conditions: for inhibition at 0.1 µM: read-out: JAK1 % inhibition at 100 nM; for inhibition at 1 µM: read-out: JAK1 % inhibition at 1 μM
JAK1, sequence (P23458 whole entry): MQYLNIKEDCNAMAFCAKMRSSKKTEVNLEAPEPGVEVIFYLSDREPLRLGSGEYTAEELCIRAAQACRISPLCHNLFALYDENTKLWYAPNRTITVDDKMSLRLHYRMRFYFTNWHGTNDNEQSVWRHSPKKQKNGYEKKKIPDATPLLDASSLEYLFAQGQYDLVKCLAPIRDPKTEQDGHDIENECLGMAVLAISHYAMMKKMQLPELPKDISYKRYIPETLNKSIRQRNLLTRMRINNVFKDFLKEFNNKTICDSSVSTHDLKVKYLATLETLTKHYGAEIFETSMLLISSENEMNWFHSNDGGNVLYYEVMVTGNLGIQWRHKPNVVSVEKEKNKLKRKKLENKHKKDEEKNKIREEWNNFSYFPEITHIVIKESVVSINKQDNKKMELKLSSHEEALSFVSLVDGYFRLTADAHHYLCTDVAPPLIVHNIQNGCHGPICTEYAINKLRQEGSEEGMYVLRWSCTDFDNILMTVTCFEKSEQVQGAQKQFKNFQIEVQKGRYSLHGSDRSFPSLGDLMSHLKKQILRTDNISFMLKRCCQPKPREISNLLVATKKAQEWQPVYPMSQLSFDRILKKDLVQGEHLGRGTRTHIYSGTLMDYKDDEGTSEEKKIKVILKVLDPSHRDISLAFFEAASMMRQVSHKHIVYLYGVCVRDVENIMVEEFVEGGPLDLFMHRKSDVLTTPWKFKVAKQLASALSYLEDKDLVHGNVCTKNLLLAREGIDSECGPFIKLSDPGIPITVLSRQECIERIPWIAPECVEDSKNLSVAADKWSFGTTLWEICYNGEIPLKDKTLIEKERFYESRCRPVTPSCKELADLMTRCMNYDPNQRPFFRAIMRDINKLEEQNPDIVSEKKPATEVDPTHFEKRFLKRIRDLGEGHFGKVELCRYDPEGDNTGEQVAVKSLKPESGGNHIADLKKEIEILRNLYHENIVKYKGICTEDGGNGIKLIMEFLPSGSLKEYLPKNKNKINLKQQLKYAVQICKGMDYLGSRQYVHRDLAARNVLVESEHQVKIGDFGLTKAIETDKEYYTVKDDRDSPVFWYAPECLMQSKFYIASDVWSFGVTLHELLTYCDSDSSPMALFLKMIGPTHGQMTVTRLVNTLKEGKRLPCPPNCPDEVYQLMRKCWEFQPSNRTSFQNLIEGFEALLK

Volume distribution = conditions: in vivo
Text: Table 8 provides some volume distribution values of the compounds of the present invention.

c-Src = c-Src (Homo sapiens (Human), UniProt P12931); test: TR-FRET c-Src kinase assay; assay type: biochemical; conditions: ATP 50 μM; for inhibition at 0.1 µM: read-out: c-SRC % inhibition at 100 nM, 100 nM; for inhibition at 1 µM: read-out: c-SRC % inhibition at 1 μM
c-Src, sequence (P12931 whole entry, looked up): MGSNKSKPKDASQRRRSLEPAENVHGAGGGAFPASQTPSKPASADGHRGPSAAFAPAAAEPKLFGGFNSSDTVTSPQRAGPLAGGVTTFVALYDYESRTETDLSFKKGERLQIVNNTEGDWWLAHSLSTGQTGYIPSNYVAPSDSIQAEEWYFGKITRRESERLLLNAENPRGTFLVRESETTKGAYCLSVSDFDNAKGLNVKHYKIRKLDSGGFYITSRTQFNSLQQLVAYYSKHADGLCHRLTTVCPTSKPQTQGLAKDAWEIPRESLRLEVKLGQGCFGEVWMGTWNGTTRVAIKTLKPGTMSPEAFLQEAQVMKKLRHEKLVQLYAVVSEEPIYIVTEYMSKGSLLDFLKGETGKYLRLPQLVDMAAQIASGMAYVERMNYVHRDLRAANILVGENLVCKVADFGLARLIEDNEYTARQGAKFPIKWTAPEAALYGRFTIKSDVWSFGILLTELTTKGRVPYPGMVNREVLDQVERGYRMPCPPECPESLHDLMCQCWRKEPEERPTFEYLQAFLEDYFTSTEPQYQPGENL
Method: (§1) Compounds were screened in the TR-FRET assay for JAK2 and c-Src kinase inhibition. Ultra light poly GT (Perkin Elmer) was used as the substrate for JAK2 and c-Src with the ATP concentration of 10 μM and 50 μM, respectively. […] The dose-response curve fitting was done using GraphPad Prism software.

JAK2 = JAK2 (Homo sapiens (Human), UniProt O60674); test: TR-FRET JAK2 kinase assay; assay type: biochemical; conditions: ATP 10 μM; for inhibition at 0.1 µM: read-out: JAK2 % inhibition at 100 nM, 100 nM; for inhibition at 1 µM: read-out: JAK2 % inhibition at 1 μM
JAK2, sequence (O60674 whole entry): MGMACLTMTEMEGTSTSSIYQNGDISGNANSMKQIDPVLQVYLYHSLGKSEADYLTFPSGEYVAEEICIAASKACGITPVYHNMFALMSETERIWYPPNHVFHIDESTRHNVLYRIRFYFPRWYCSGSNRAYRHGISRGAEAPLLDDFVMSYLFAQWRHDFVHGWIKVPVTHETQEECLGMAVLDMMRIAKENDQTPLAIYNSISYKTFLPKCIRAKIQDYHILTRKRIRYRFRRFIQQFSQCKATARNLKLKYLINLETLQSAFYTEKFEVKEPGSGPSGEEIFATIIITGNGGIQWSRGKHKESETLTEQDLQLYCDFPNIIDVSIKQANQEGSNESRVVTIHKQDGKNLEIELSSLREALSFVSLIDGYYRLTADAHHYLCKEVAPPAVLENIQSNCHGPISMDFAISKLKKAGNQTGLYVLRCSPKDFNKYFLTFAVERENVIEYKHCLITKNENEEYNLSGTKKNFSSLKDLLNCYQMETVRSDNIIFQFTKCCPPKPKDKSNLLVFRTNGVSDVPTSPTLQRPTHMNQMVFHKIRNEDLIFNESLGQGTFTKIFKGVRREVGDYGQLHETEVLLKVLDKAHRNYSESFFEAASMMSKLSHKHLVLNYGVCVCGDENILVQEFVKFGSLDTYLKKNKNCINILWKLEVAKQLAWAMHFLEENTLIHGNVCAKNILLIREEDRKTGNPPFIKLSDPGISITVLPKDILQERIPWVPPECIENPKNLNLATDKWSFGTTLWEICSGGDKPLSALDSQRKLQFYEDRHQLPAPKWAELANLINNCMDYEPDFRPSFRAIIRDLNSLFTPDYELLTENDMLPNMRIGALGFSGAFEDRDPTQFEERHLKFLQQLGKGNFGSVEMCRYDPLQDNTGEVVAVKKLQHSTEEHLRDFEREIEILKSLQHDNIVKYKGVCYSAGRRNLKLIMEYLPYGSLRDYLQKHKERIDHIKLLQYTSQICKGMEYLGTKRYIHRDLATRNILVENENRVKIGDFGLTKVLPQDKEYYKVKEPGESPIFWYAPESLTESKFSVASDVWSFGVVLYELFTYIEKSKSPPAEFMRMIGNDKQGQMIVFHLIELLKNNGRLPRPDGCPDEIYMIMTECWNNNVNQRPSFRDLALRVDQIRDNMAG
Method: as §1

A431 cancer cell line = test: Inhibition of cell growth in A431; assay type: cell-based; conditions: Homo sapiens, A-431
A431 tumor cells = test: A431 xenograft model; assay type: in vivo, athymic nude mice; conditions: A431 Xenograft model, 100 MPK
Method: SC injection of 5×10^6 A431 tumor cells with Matrigel® on the left flank of 24 female athymic nude mice. Randomization of mice 14 days after tumor cell injection into 3 groups of 8 mice each with a mean tumor volume of 90±1 mm3.
(§2) Formulation: 20% HPC, 2% ethanol solution in PBS for the compound No. 45
• Normal saline for Gefitinib® Dosing route: Oral for the compound No. 45 and Gefitinib® Dose Volume: 10 mL/Kg body weight Dosing schedule: Once daily for 14 consecutive days (Q1Dx14) PK-PD experiment in A431 model: Tumors were allowed to grow to 250 mm^3 size. Compounds were dosed once and PBMCs and tumors were collected at Tmax for pStat3 estimation. Plasma was also collected to estimate drug concentration estimation. Efficacy experiment in A431 model: Dosage: • Group1. Vehicle control • Group2. Compound No. 45—150 MPK • Group3. […] Plasma collected for drug concentration estimation and whole blood was collected to isolate PBMCs to determine pStat3 inhibition by flow cytometry as PD readout. Tumors were snap frozen in liquid nitrogen and stored at −80° C. to estimate pStat3 by flow cytometry as PD readout Determination of Plasma Drug Concentration: […]

pStat3 [2] = test: Quantification of pStat3 in PBMCs by flow cytometry; assay type: in vivo, mice; conditions: B16F10 model, 5 MPK
Method: Phosphorylation of Stat3 was stimulated by addition of hIL6 (10 ug/mL) for 30 min at 37° C. Blood was fixed with formaldehyde (final 2% v/v) for 10 min at 37° C.
Buffy coat (PBMCs) was separated by aspirating translucent layer using pipetteman and washed twice with PBS-1×
Pre chilled PBMC's were permeabilized by adding ice cold Methanol, while vortexing gently (final volume 90% MeOH v/v) and incubated for 30 min on ice.
Permeabilized PBMCs were washed with PBS once. PBMCs re-suspended to 2×10^6 cells in 200 μL of incubation buffer for 10 min at room temperature (RT). Primary Ab was added (1:100 dilution) and incubated 45 min at RT. Washed as before (twice) and re-suspended in fluorochrome conjugated secondary Ab (1:500 dilution) and incubated at RT in dark for 30 min. Washed and re-suspended in […] PBS.
Measured pStat3 using FACS caliber machine (BD). Unstained PBMCs was used for cytometry settings. […] Histograms (cell number V/s FL1-H) were plotted. Percentage of cells that are phosphorylated by IL6 stimulation (M2 population), and inhibition of phosphorylation by inhibitor (decrease in M2 population) are calculated on histogram by marking peaks, M1 and M2.

B16F10 tumor cells = test: B16F10 metastasis model; assay type: in vivo, C57B16 mice; conditions: B16F10 model, 5 MPK
Method: IV injection of 0.1×10^6 B16F10 tumor cells in the tail vain of 60 male C57B16 mice. Randomization of mice one day after tumor cell injection into 4 groups of 15 mice. Out of 15, 6 mice were sacrificed on 14th day for counting metastatic foci on lungs. Rest 9 mice were dosed continuously till morbidity/mortality for recording survival.
as §2
Plasma collected for drug concentration estimation and whole blood was collected to isolate PBMCs to determine pStat3 inhibition by flow cytometry as PD readout.

Row | Compound | EC50 (A549 cells) | IC50 (pStat3 [1]) | EC50 (Mda-Mb-231 cells) | inhibition at 0.1 µM (JAK1) | inhibition at 1 µM (JAK1) | Vd (Volume distribution) | IC50 (c-Src) | IC50 (JAK2) | EC50 (A431 cancer cell line) | inhibition at 0.1 µM (c-Src) | inhibition at 1 µM (c-Src) | inhibition at 0.1 µM (JAK2) | inhibition at 1 µM (JAK2) | distribution volume (in words) (Volume distribution) | % TGI (A431 tumor cells) | PBMCs % pStat3 inhibition (pStat3 [2]) | Metastasis Inhibition (B16F10 tumor cells)
1 | Cc1ccc(NC(=O)c2cccc(C(F)(F)F)c2)cc1N1CCc2nc(Nc3ccc(C(=O)N4CCN(C)CC4)cc3)ncc2C1 [Compound 17, N-(4-Methyl-3-{2-[4-(4-methyl-piperazine-1-carbonyl)-phenylamino]-7,8-dihydro-5H-pyrido[4,3-d]pyrimidin-6-yl}-phenyl)-3-trifluoromethyl-benzamide] | 10 nM | 150 nM | 44 nM | 85% | 89% | 7.7 L/kg | 2 nM | 3 nM | 92 nM | – | – | – | – | – | – | – | –
2 | Cc1cc(Nc2ncc3c(n2)CCN(c2cc(NC(=O)c4cccc(C(F)(F)F)c4)ccc2Cl)C3=O)ccc1N1CCN(C)CC1 [Compound 171, N-(4-Chloro-3-{2-[3-methyl-4-(4-methyl-piperazin-1-yl)-phenylamino]-5-oxo-7,8-dihydro-5H-pyrido[4,3-d]pyrimidin-6-yl}-phenyl)-3-trifluoromethyl-benzamide] | 2100 nM | 471 nM | 1300 nM | 61% | 84% | 0.794 L/kg | 20 nM | 19 nM | – | 74% | 87% | 92% | 97% | weak volume of distribution | – | – | –
3 | COc1cc2ncnc(Nc3ccc(F)c(Cl)c3)c2cc1OCCCN1CCOCC1 [Gefitinib, reference compound] | – | – | – | – | – | – | – | – | – | – | – | – | – | – | 94.25% | – | –
4 | CC(=O)O[C@H]1C(=O)[C@@]2(C)[C@H]([C@H](OC(=O)c3ccccc3)[C@]3(O)C[C@H](OC(=O)[C@H](O)[C@@H](NC(=O)c4ccccc4)c4ccccc4)C(C)=C1C3(C)C)[C@]1(OC(C)=O)CO[C@@H]1C[C@@H]2O [Taxol, paclitaxel, reference compound] | – | – | – | – | – | – | – | – | – | – | – | – | – | – | – | 25% | 32%

Further compounds by falling EC50 (Mda-Mb-231 cells), results first:

Row | EC50 (A549 cells) | IC50 (pStat3 [1]) | EC50 (Mda-Mb-231 cells) | inhibition at 0.1 µM (JAK1) | inhibition at 1 µM (JAK1) | Vd (Volume distribution) | IC50 (c-Src) | IC50 (JAK2) | EC50 (A431 cancer cell line) | inhibition at 0.1 µM (c-Src) | inhibition at 1 µM (c-Src) | inhibition at 0.1 µM (JAK2) | inhibition at 1 µM (JAK2) | distribution volume (in words) (Volume distribution) | Compound | % TGI (A431 tumor cells) | PBMCs % pStat3 inhibition (pStat3 [2]) | Metastasis Inhibition (B16F10 tumor cells)
5 | 1140 nM | 350 nM | 1380 nM | – | – | 3.35 L/kg | 27 nM | 6 nM | 600 nM | 73% | 81% | 92% | 97% | – | CN1CCN(c2ccc(Nc3ncc4c(n3)CCN(c3cc(NC(=O)c5cccc(C(F)(F)F)c5)ccc3Cl)C4=O)cc2)CC1 [Compound 162, N-(4-Chloro-3-{2-[4-(4-methyl-piperazin-1-yl)-phenylamino]-5-oxo-7,8-dihydro-5H-pyrido[4,3-d]pyrimidin-6-yl}-phenyl)-3-trifluoromethyl-benzamide] | – | – | –
6 | – | – | 1200 nM | – | – | 11.8 L/kg | 2 nM | 18 nM | – | – | – | – | – | – | Cc1ccc(NC(=O)CC(C)C(F)(F)F)cc1N1CCc2nc(Nc3ccc(OCCN4CCCC4)cc3)ncc2C1 (centres unmarked) [Compound 155, 4,4,4-Trifluoro-3-methyl-N-(4-methyl-3-{2-[4-(2-pyrrolidin-1-yl-ethoxy)-phenylamino]-7,8-dihydro-5H-pyrido[4,3-d]pyrimidin-6-yl}-phenyl)-butyramide] | – | – | –
7 | – | – | 720 nM | – | – | 20.6 L/kg | – | 21 nM | – | 67% | 90% | 88% | 93% | – | Cc1ccc(NC(=O)CCC(F)(F)F)cc1N1CCc2nc(Nc3ccc(OCCN4CCCC4)cc3)ncc2C1 [Compound 147, 4,4,4-Trifluoro-N-(4-methyl-3-{2-[4-(2-pyrrolidin-1-yl-ethoxy)-phenylamino]-7,8-dihydro-5H-pyrido[4,3-d]pyrimidin-6-yl}-phenyl)-butyramide] | – | – | –
